Literature values in patent US20090214511A1, “DIGESTIBLE COMPOSITIONS OF INULIN FOR MANAGING BLOOD GLUCOSE LEVELS” (priority 2008, published 2009).

Structure (SMILES) | cumulative incidence of monotherapy failure at 5 years (Type 2 diabetes, initial choice of anti-diabetic drug, 5 years) [%] | weight gain and edema versus non-users (randomized controlled trial, users vs non-users)
CN(C)C(=N)N=C(N)N [metformin] | 21 | –
CN(CCOc1ccc(CC2SC(=O)NC2=O)cc1)c1ccccn1 (centres unmarked) [rosiglitazone] | – | more weight gain and edema
